Where a SMILES comes first, the peptide text is derived from it.
Legend:
[1] = test system: P. aeruginosa (ATCC CRM 9027) biofilm; type: cell-based, Pseudomonas aeruginosa; conditions: ATCC CRM 9027, 24 h
Protocol: (§1) The anti-biofilm activities of the peptides against S. aureus (ATCC 6538), MRSA (NCTC 12493), E. faecalis (NCTC 12493), E. coli (ATCC CRM 8739), K. pneumoniae (ATCC 43816), and P. aeruginosa (ATCC CRM 9027) were evaluated.
(§2) The bacteria were inoculated in a different medium (Gram-positive bacteria were in TSB and Gram-negative bacteria were in LB) overnight, and the subculture was conducted in the same medium. When the bacteria reached a specific density, 100 µL of the dilution was added to each well of the 96-well microplate. Then 1 µL of peptide at a series of concentrations, the same concentration in the antimicrobial assay, were added into the well together with the bacteria. The plates were put into a moist shaking incubator with a speed of 200 rpm, and the temperature was set at 37 ℃. After a 24-h incubation, the liquid in the wells was aspirated, and each was washed twice by 100 µL PBS. One hundred µL of methanol were added into each well to stabilise the biofilm. After air-drying, 100 µL crystal violet was used to dye the biofilm, and they were dissolved in the 100 µL glacial acidic acid after drying. The solutions were transferred to a new microplate, and the absorbance of each well was tested by a microplate reader (EL808, Biolise BioTek Winooski, Minneapolis, MN, USA) at 595 nm wavelength. MBIC was the minimum concentration of the peptide showing no biofilm formation.
(§3) The bacteria were inoculated in a different medium (Gram-positive bacteria were in TSB and Gram-negative bacteria were in LB) overnight, and the subculture was conducted in the same medium. When the bacteria reached a specific density, 100 µL of the dilution was added to each well of the 96-well microplates. The plates were put into a moist shaking incubator with a speed of 200 rpm and the temperature was 37 ℃. After a 24 h incubation, the liquid in the wells was aspirated and they were washed twice by 100 µL PBS of each well. The peptides with the same concentrations were diluted in the corresponding medium and 100 µL were added into each well. After a 24-h incubation, the liquid in the wells was aspirated and they were washed twice by 100 µL PBS. One hundred µL of methanol were added into the wells to stabilise the biofilms. After being air-dried, 100 µL crystal violet was used to dye the biofilm, and they were dissolved in the 100 µL glacial acidic acid after drying. The solutions were transferred to a new microplate, and the absorbance of each well was tested by a microplate reader (EL808, Biolise BioTek Winooski, Minneapolis, USA) at 595 nm wavelength.

[2] = test system: K. pneumoniae (ATCC 43816) biofilm; type: cell-based, Klebsiella pneumoniae; conditions: ATCC 43816, 24 h
Protocol: as §1, §2, §3

[3] = test system: MRSA (NCTC 12493); type: cell-based, Methicillin-resistant Staphylococcus aureus
Protocol: (§4) The method of antimicrobial assay is based on the Methods for Dilution Antimicrobial Susceptibility Tests for Bacteria that Grow Aerobically from the Clinical and Laboratory Standards Institute (CLSI).The antimicrobial activities of peptides were evaluated against Gram-positive bacteria S. aureus (ATCC 6538), MRSA (NCTC 12493), E. faecalis (NCTC 12493), Gram-negative bacteria E. coli (ATCC CRM 8739), K. pneumoniae (ATCC 43816), P. aeruginosa (ATCC CRM 9027), yeast C. albicans (ATCC CRM 10231) and clinical isolates MRSA (B042 V2E1 A), E. coli (ATCC BAA-2340), K. pneumoniae (ATCC BAA-1705), P. aeruginosa (B004 V2S2 B).
(§5) At the first stage of the assay, 20 μL bacteria were cultured in 100 mL Mueller Hinton Broth (MHB) or Yeast Extract–Peptone–Dextrose broth (YPD-B), respectively, and was incubated overnight. Then, microorganisms were subcultured in 20 mL fresh MHB or YPD-B to achieve cultures in the logarithmic phase (1 × 10^8 CFU/mL), which can be verified by optical density (OD) (The OD of Gram-positive bacteria is 0.23, OD of Gram-negative bacteria is 0.4, and OD of yeast is 0.15), and viable cell counts. Then, the medium was used to dilute the cultures to specific cell densities (Gram-negative and Gram-positive bacteria: 5 × 10^5 CFU/mL; yeast: 1 × 10^6 CFU/mL), which were the final concentrations of bacterial suspensions used in the assay. The peptides were dissolved in DMSO to reach a final concentration of 512 µM. A series of two-fold dilutions ranging from 512 µM to 1 µM were dosed in the 96-well plates.
(§6) Antimicrobial assays were conducted in 96-well plates, which were divided into five groups, including a negative control group (PBS), a positive control group (20 μg/mL norfloxacin for bacteria and 10 μg/mL amphotericin B for yeast), vehicle control (1% DMSO), blank control (MHB or YPD-B), and a peptide group. Each microorganism had five repetitions, and each well contained 1 µL corresponding solution and 99 µL culture. After incubation at 37 °C overnight, the absorbance of each well was tested by a microplate reader (EL808, Biolise BioTek Winooski, Minneapolis, USA) under a 550 nm wavelength. The MIC is the lowest concentration at which no bacterial growth can be observed.
(§7) The next day, 10 µL of every clear well was taken out to be cultured on a Mueller Hinton Agar (MHA) plate and incubated at 37 °C for 16–20 h. The MBC is the lowest concentration without any bacterial colonies, which means at this concentration, the peptide reduces the viability of the pathogen by more than 99.9%.

[4] = test system: MRSA (B042 V2E1 A); type: cell-based, Methicillin-resistant Staphylococcus aureus
Protocol: as §4, §5, §6, §7

[5] = test system: E. coli (ATCC CRM 8739) biofilm; type: cell-based, Escherichia coli; conditions: ATCC CRM 8739, 24 h
Protocol: as §1, §2, §3

[6] = test system: P. aeruginosa (B004 V2S2 B); type: cell-based, Pseudomonas aeruginosa
Protocol: as §4, §5, §6, §7

[7] = test system: P. aeruginosa (ATCC CRM 9027); type: cell-based, Pseudomonas aeruginosa
Protocol: as §4, §5, §6, §7

[8] = test system: E. coli (ATCC CRM 8739); type: cell-based, Escherichia coli
Protocol: as §4, §5, §6, §7

[9] = test system: K. pneumoniae (ATCC BAA-1705); type: cell-based, Klebsiella pneumoniae
Protocol: as §4, §5, §6, §7

[10] = test system: K. pneumoniae (ATCC 43816); type: cell-based, Klebsiella pneumoniae
Protocol: as §4, §5, §6, §7

CC[C@H](C)[C@H](NC(=O)[C@@H](NC(=O)CN)C(C)C)C(=O)N[C@H](C(=O)N[C@@H](CCCCN)C(=O)N[C@H](C(=O)N[C@@H](CC(C)C)C(=O)N[C@@H](CCCCN)C(=O)NCC(=O)N[C@@H](C)C(=O)N[C@@H](C)C(=O)N[C@@H](CCCCN)C(=O)N[C@H](C(=O)N[C@H](C(=O)N[C@@H](C)C(=O)N[C@@H](C)C(=O)N[C@@H](CCCCN)C(=O)N[C@@H](CC(C)C)C(=O)N[C@@H](CC(C)C)C(N)=O)C(C)C)[C@@H](C)O)[C@@H](C)O)[C@@H](C)CC [tB2U-K] (H-GVIIKTLKGAAKTVAAKLL-NH2)
16 µM: MBIC [5]
128 µM: MBIC [1] | MBIC [2] | MBC [3] | MIC [3] | MBC [9] | MIC [9] | MBC [10] | MIC [10]
8 µM: MBC [8] | MIC [8]
>512 µM: MBC [4] | MIC [4] | MBC [6] | MIC [6]
> 512 µM: MBEC [1] | MBEC [2] | MBEC [5]
32 µM: MBC [7] | MIC [7]

CC[C@H](C)[C@H](NC(=O)[C@@H](NC(=O)CN)C(C)C)C(=O)N[C@H](C(=O)N[C@@H](CCCCN)C(=O)N[C@@H](CCCCN)C(=O)N[C@@H](CC(C)C)C(=O)N[C@@H](CCCCN)C(=O)NCC(=O)N[C@@H](C)C(=O)N[C@@H](C)C(=O)N[C@@H](CCCCN)C(=O)N[C@@H](CCCCN)C(=O)N[C@H](C(=O)N[C@@H](C)C(=O)N[C@@H](C)C(=O)N[C@@H](CCCCN)C(=O)N[C@@H](CC(C)C)C(=O)N[C@@H](CC(C)C)C(N)=O)C(C)C)[C@@H](C)CC [tB2U-6K] (H-GVIIKKLKGAAKKVAAKLL-NH2)
2 µM: MBIC [5] | MBC [8] | MIC [8]
128 µM: MBC [3] | MBC [9] | MIC [9]
64 µM: MIC [3] | MBC [6] | MIC [6]
16 µM: MBC [7] | MIC [7]
256 µM: MBC [4] | MIC [4]
> 512 µM: MBEC [1] | MBEC [2] | MBEC [5]
32 µM: MBIC [1] | MBIC [2] | MBC [10] | MIC [10]

Reference: article PMC8388802, “Study on the Structure-Activity Relationship of an Antimicrobial Peptide, Brevinin-2GUb, from the Skin Secretion of Hylarana guentheri” (Antibiotics, 2021)
